Values joined by “and” are separate entries in the source; they are usually repeats but may differ in a detail not shown here. Equal values may be shown once. Read-outs that look alike come from different tables or passages of the source.
Tests used:
[1] = for Permeated amount after 12 h: labelled species found in receptor fluid
Description: (§3) Fresh excised abdominal skin was used for these experiments. To strip skin, stratum corneum was removed by 20 successive strippings using cellophane adhesive tape (Nichiban K.K., Japan) according to conventional methods. The excised skin was mounted between half-cells with the dermal side in contact with receptor fluid (pH 6.8 phosphate-buffered saline (PBS) with 3% BSA). Receptor fluid flow rate was 5 mL/h. Two milliliters of drug suspension (drug amount = twice the amount required for saturation) in pH 4.0 acetate buffer was added to the donor chamber.
(§4) The in vitro permeation parameters were calculated from the penetration data using the following equations: Js = (KmDC)/δ = KpC and τ = δ^2/6D, where Js is steady state flux, Km is the solvent membrane partition coefficient of drug, D is diffusion coefficient, C is drug concentration in donor chamber, δ is thickness of rat skin, Kp is the permeability coefficient of drug, and τ represents lag time.

[2] = for Permeated amount after 12 h: full-thickness skin preincubated with 2 mM BNPP 1 h
Description: as §3
In an inhibition study for CES, skin mounted between the half-cells was preincubated with the dermal side in contact with 2 mM BNPP (dissolved in pH 6.8 PBS containing 3% BSA) for 1 h.
as §4

[3] = tested on: esterases of rat skin S9; test: Native PAGE esterase activity staining of rat skin S9 with 1-naphthylacetate; type: biochemical; conditions: native PAGE stained with 1-naphthylacetate
[4] = Hydrolysis in rat skin S9 fraction; type: in vitro ADME; conditions: for Hydrolysis in skin S9 relative to liver microsomes (slower) / Vmax in skin S9 relative to liver microsomes (smaller) / Vmax/Km in skin S9 relative to liver microsomes (smaller): skin S9 vs liver microsomes
Description: After hair was carefully clipped and shaved, rats were sacrificed by exsanguination under ether anesthesia. Abdominal and dorsal skin was removed using a scalpel and dissection scissors. A few pieces of skin were stored in liquid nitrogen for extraction of total RNA. The skin was minced, mixed with five volumes of ice-cold 4-(2-hydroxyethyl)-1-piperazineethanesulfonic acid (HEPES) buffer (50 mM, pH 7.4) containing 0.15 M KCl, and homogenized using a Polytron (Kinematica, Lucerne, Switzerland) on ice. Whole homogenate was filtered through a funnel containing buffer-soaked cotton wool. After centrifugation of the skin homogenate at 9000g for 20 min at 4 °C, the supernatant fraction (S9) was obtained. Protein content was determined by the method described by Bradford using bovine serum albumin (BSA) as standard. The skin S9 was stored at −80 °C until use.
(§1) Hydrolysis of PNPA, PNPB, and caproyl-PL were performed in S9 and microsomal fractions of rat liver, testis, kidney and skin. Tissue samples were diluted with 50 mM HEPES (pH 7.4) buffer at appropriate protein concentrations and preincubated for 5 min at 37 °C. The hydrolysis reaction was initiated by the addition of test compounds dissolved in dimethyl sulfoxide (DMSO). The final concentration of DMSO was less than 0.5%, which has no effect on hydrolytic activity. The rate of hydrolysis of PNPA and PNPB (final concentrations 15–500 μM) was determined by the initial linear increase in absorbance of p-nitrophenol at 405 nm (V-530, JASCO Co., Tokyo, Japan).
For the hydrolysis of caproyl-PL, the reaction was terminated by addition of 5 mL ethylacetate. After extraction of PL, as previously described, stereoselective determination was carried out using high-performance liquid chromatography (HPLC).

[5] = Hydrolysis in rat testis microsomes; type: in vitro ADME; conditions: pH 7.4; for Km: testis microsomes 10 μg/mL for PNPA, 5 μg/mL for PNPB; for Vmax: testis microsomes
Description: (§2) The excised liver, kidney, and testis were washed with ice-cold 0.15 M KCl, and finely minced using scissors. Minced tissues were homogenized with 3 volumes of 50 mM HEPES buffer (pH 7.4) containing 0.15 M KCl in a Potter–Elvehjem glass homogenizer equipped with a Teflon pestle under ice-cold conditions. Homogenates (25% wet w/v) were centrifuged at 9000g for 20 min at 4 °C, to give the S9 fraction. S9 fraction was further centrifuged at 100,000g for 1 h at 4 °C. The resulting pellets were resuspended in 50 mM HEPES buffer (pH 7.4) containing 0.15 M KCl to prepare the microsomal fraction. Protein concentrations were determined by the method of Bradford using BSA as standard. S9 and the microsomal fraction were stored at −80 °C until use.
as §1

[6] = Hydrolysis in rat kidney microsomes; type: in vitro ADME; conditions: pH 7.4; for Vmax: kidney microsomes; for Km: kidney microsomes 10 μg/mL
Description: as §2, §1

[7] = Hydrolysis in rat liver microsomes; type: in vitro ADME; conditions: pH 7.4; for Vmax: liver microsomes; for Km: liver microsomes 20 μg/mL for PNPA, 10 μg/mL for PNPB
Description: as §2, §1

[8] = Nonenzymatic hydrolysis of caproyl-PL to PL in buffer; type: physicochemical
Description: Hydrolysis was greater under basic buffer conditions […]. […] The hydrolysis of caproyl-PL was <0.05% during the sampling period (1 h) at pH 6.8 in PBS containing 3% BSA.

[9] = cited from earlier work
[10] = after application of PL, full-thickness skin
[11] = after application of caproyl-PL, full-thickness skin, n = 6
[12] = after application of caproyl-PL, labelled species, full-thickness skin
[13] = after application of PL, stripped skin
[14] = after application of caproyl-PL, labelled species, stripped skin
[15] = after application of PL, full-thickness skin with BNPP
[16] = after application of caproyl-PL, labelled species
[17] = after application of caproyl-PL, labelled species, full-thickness skin with BNPP
[18] = hydrolysis, skin S9 300 μg/mL, 50 mM HEPES pH 7.4
[19] = after application of caproyl-PL, total of caproyl-PL and PL, full-thickness skin
[20] = caproyl-PL applied to full-thickness skin
[21] = after application of caproyl-PL, total, stripped skin
[22] = after application of caproyl-PL, total, full-thickness skin with BNPP

CC(C)NCC(O)COc1cccc2ccccc12 (stereo not drawn) [PL, propranolol]
Lag time [1, 10]: 1.5 ± 0.56 h
Skin concentration at 12 h [1, 10]: 9,400 ± 380 nmol/g tissue
Steady state flux [1, 10]: 240 ± 94 nmol/h
Amount permeated after 12 h ([1]; after application of PL, full-thickness skin, n = 6): 2,600 ± 970 nmol
Permeated amount after 12 h [1, 11]: 140 ± 35 nmol
Lag time [1, 12]: 4.9 ± 1.1 h
Skin concentration at 12 h [1, 12]: 550 ± 120 nmol/g tissue
Steady state flux [1, 12]: 20 ± 6.2 nmol/h
Amount permeated after 12 h [13]: 17,000 ± 3,600 nmol
Lag time [13]: 1.4 ± 0.36 h
Skin concentration at 12 h [13]: 6,900 ± 3,700 nmol/g tissue
Lag time [14]: 3.6 ± 0.38 h
Permeated amount after 12 h [14]: 190 ± 55 nmol
Skin concentration at 12 h [14]: 870 ± 44 nmol/g tissue
Steady state flux [14]: 22 ± 6.4 nmol/h
Amount permeated after 12 h [2, 15]: 2,600 ± 990 nmol
Lag time [2, 15]: 0.84 ± 0.24 h
Skin concentration at 12 h [2, 15]: 9,900 ± 590 nmol/g tissue
Steady state flux [2, 15]: 240 ± 87 nmol/h
Permeated amount after 12 h [2, 16]: 21 ± 18 nmol
Lag time [2, 17]: 6.3 ± 0.93 h
Skin concentration at 12 h [2, 17]: 130 ± 7.7 nmol/g tissue
Steady state flux [2, 17]: 3.5 ± 2.6 nmol/h

CCN(CC)C(C)CN1c2ccccc2Sc2ccccc21 (stereo not drawn) [ethopropazine]
Inhibition of formation of esterase bands of skin S9 [3]: not inhibited

CC(=O)Oc1ccc([N+](=O)[O-])cc1 [PNPA, p-nitrophenylacetate]
Vmax [4, 18]: 188 ± 30.3 nmol/min/mg protein
Km ([4]; rat, skin S9 fraction, hydrolysis, skin S9 300 μg/mL, 50 mM HEPES pH 7.4, 37 °C, mean ± S.D. (n = 3/4), read-out: Km): 55.5 ± 8.18 µM
Hydrolysis in skin S9 relative to liver microsomes (slower) [4]: around 20 fold
Vmax in skin S9 relative to liver microsomes (smaller) [4]: 19 fold
Vmax/Km in skin S9 relative to liver microsomes (smaller) [4]: 21 fold
Km ([5]; male, rat): 34.6 ± 1.27 µM
Vmax [5]: 1,606 ± 333 nmol/min/mg protein
Vmax [6]: 2,432 ± 497 nmol/min/mg protein
Km ([6]; rat): 268 ± 83.8 µM
Vmax [7]: 3,570 ± 810 nmol/min/mg protein
Km ([7]; rat): 57 ± 18.2 µM

CCCC(=O)Oc1ccc([N+](=O)[O-])cc1 [PNPB, p-nitrophenylbutyrate]
Vmax [4, 18]: 460 ± 127 nmol/min/mg protein
Km ([4]; hydrolysis, skin S9 300 μg/mL, 50 mM HEPES pH 7.4, 37 °C, mean ± S.D. (n = 3/4), read-out: Km): 97.1 ± 30.2 µM
Hydrolysis in skin S9 relative to liver microsomes (slower) [4]: around 20 fold
Vmax in skin S9 relative to liver microsomes (smaller) [4]: 9 fold
Vmax/Km in skin S9 relative to liver microsomes (smaller) [4]: 24 fold
Km [5]: 63.4 ± 13.9 µM
Vmax [5]: 2,978 ± 398 nmol/min/mg protein
Km [6]: 97 ± 16.6 µM
Vmax [6]: 994 ± 286 nmol/min/mg protein
Km [7]: 37.1 ± 9.42 µM
Vmax [7]: 4,220 ± 521 nmol/min/mg protein

CCCCCC(=O)OC(CNC(C)C)COc1cccc2ccccc12.Cl (stereo not drawn) [Caproyl-PL, O-caproyl-PL hydrochloride]
Vmax ([4]; hydrolysis of caproyl-PL in rat skin S9): 9.24 ± 2.95 nmol/min/mg S9 protein
Km ([4]; hydrolysis of caproyl-PL in rat skin S9, read-out: Km value): 19.7 ± 5.36 µM
Hydrolysis in skin S9 relative to liver microsomes (slower) [4]: 20 fold
Nonenzymatic hydrolysis of caproyl-PL to PL ([8]; in 12 h, pH 4.0 acetate buffer): < 0.1%
Nonenzymatic hydrolysis of caproyl-PL ([8]; sampling period 1 h, pH 6.8 PBS containing 3% BSA): < 0.05%
Skin concentration of caproyl-PL relative to PL (higher) ([1]; 12 h after dosing caproyl-PL, full-thickness skin): 3.5 fold
Permeated amount after 12 h [1, 11]: 1.7 ± 1.4 nmol
Lag time [1, 12]: 7.0 ± 0.78 h
Skin concentration at 12 h [1, 12]: 1,900 ± 630 nmol/g tissue
Steady state flux [1, 12]: 0.40 ± 0.28 nmol/h
Skin concentration at 12 h ([1]; after application of caproyl-PL, labelled species, full-thickness skin, listed as caproyl-PL): 1900 ± 630 nmol/g tissue
Lag time, Total [1, 19]: 4.9 h and 4.9 ± 1.1 h
Permeated amount after 12 h, Total [1, 19]: 140 ± 33 nmol
Skin concentration at 12 h, Total [1, 19]: 2,400 ± 780 nmol/g tissue
Steady state flux, Total [1, 19]: 20 ± 6.1 nmol/h
Predicted concentration of caproyl-PL in viable epidermis and dermis ([1]; after application to full-thickness skin, estimated from flux and permeation clearance): about 500 nmol/g tissue
Dose retained in the stratum corneum [1, 20]: 75%
Dose transferred into viable skin [1, 20]: 25%
Predicted concentration in viable epidermis and dermis relative to Km value (higher) ([1]; full-thickness skin): 25 fold
Steady-state flux and Kp values of intact caproyl-PL in stripped skin relative to full-thickness skin (greater) (after application of caproyl-PL): 6 fold
Lag time [14]: 4.7 ± 1.7 h
Permeated amount after 12 h [14]: 12 ± 13 nmol
Skin concentration at 12 h [14]: 3,200 ± 580 nmol/g tissue
Steady state flux [14]: 2.4 ± 0.98 nmol/h
Skin concentration at 12 h (after application of caproyl-PL, labelled species, stripped skin, listed as caproyl-PL): 3200 ± 580 nmol/g tissue
Permeated amount after 12 h, Total (after application of caproyl-PL, total of caproyl-PL and PL, stripped skin): 200 ± 50 nmol
Lag time, Total [21]: 3.6 ± 0.43 h
Skin concentration at 12 h, Total [21]: 4,100 ± 600 nmol/g tissue
Steady state flux, Total [21]: 23 ± 5.5 nmol/h
Permeation clearance from viable skin to receptor fluid (calculated from steady-state flux and cutaneous concentration in stripped skin): 0.75 mg tissue/h
Concentration of caproyl-PL in stripped skin relative to Km value (higher) (vs Km in skin S9): 160 fold
Permeated amount after 12 h [2, 16]: 3.9 ± 3.4 nmol
Lag time [2, 17]: 8.3 ± 1.2 h
Skin concentration at 12 h [2, 17]: 2,100 ± 220 nmol/g tissue
Steady state flux [2, 17]: 0.83 ± 0.65 nmol/h
Lag time, Total [2, 22]: 6.4 ± 0.92 h
Permeated amount after 12 h, Total [2, 22]: 25 ± 21 nmol
Skin concentration at 12 h, Total [2, 22]: 2,200 ± 230 nmol/g tissue
Steady state flux, Total [2, 22]: 4.1 ± 3.1 nmol/h
Permeated amount, steady state flux and Kp value of intact caproyl-PL, increase by treatment with BNPP ([2]; full-thickness skin with vs without BNPP): 2 fold
log PC ([9]; between 1-octanol and pH 4.0 phosphate buffer, method and reference not given): 2.3
pKa ([9]; stated in discussion, method and reference not given): 9.1
Constant concentration in donor compartment (suspension) ([9]; suspension in pH 4.0 acetate buffer): 6.4 mM

O=[N+]([O-])c1ccc(OP(=O)(O)Oc2ccc([N+](=O)[O-])cc2)cc1 [BNPP, bis-p-nitrophenyl phosphate]
PL conversion from caproyl-PL after treatment with BNPP ([2]; 2 mM BNPP on receiver side for 1 h, full-thickness skin): markedly decreased

— article PMC3836617 (Pharmaceutics, 2013)
